# Test results: patent publication US5463052A, “Method for producing benzylidene derivatives” (Shionogi & Co., Ltd., priority 1993, dated 1995)
# Assays:
# Type in all cases: cell-based
# [1] = test system: production of IL-1 in THP-1 cells; test: inhibitory activity against the production of IL-1 under LPS stimulation in THP-1 cells; settings: Homo sapiens, read-out: L-1 (THP-1) IC50
# Description: (§1) These benzylidene derivatives of the formula III can be prepared in a conventional manner, for example, according to the following reaction scheme. [drawing 5] In the reaction scheme above, R is a as defined above and R^3 is hydroxy-protecting group in EP patent application No. 93308369.3 (Publication No. 595546) corresponding to U.S. patent application No. 08/142,146. Thus, hydroxy-protected 3,5-di-tert-butyl-4-hydroxybenzaldehyde 4 is reacted with γ-sultam derivative 2 under a conditions for aldol reaction to obtain an aldol addition compound 5. The compound […], when deprotected and dehydrated in the presence of an acid, gives the objective benzylidene derivative 3' as a mixture of stereoisomers in (E)- and (Z) forms, which is then subjected to resolution, when a given isomer is desired.
# [2] = test system: production of LTB4 in rat celiac cells; test: inhibitory activity against the production of LTB4 in rat celiac cells (Rat PEC)
# Description: as §1
# [3] = test system: production of PGE2 in rat synovial membrane cells; test: inhibitory activity against the production of PGE2 in rat synovial membrane cells (Rat SVC)
# Description: as §1
Structure (SMILES),IC50 [1],IC50 [2],IC50 [3]
"CN1CC/C(=C\c2cc(C(C)(C)C)c(O)c(C(C)(C)C)c2)S1(=O)=O [(E), (E)-5-(3,5-di-tert-Butyl-4-hydroxybenzylidene)-2-methyl-1,2-isothiazolidine-1,1-dioxide]",21 µM,2.8 µM,< 0.001 µM
"CN1CC/C(=C/c2cc(C(C)(C)C)c(O)c(C(C)(C)C)c2)S1(=O)=O [(Z), 5-(3,5-di-tert-butyl-4-hydroxybenzylidene)-2-methyl-1,2-isothiazolidine-1,1-dioxide]",29 µM,1.8 µM,< 0.001 µM
